Results from publication PMC9573605, “Exploring Nitric Oxide (NO)-Releasing Celecoxib Derivatives as Modulators of Radioresponse in Pheochromocytoma Cells” (Molecules, 2022).
Counter-ions that a name gives are not always drawn. Like-named read-outs stand apart in the source and are kept apart here.

Experiments:
[1] = target: T1, purified ovine COX-1 (Ovis aries, UniProt P05979); assay: COX Fluorescent Inhibitor Screening Assay, COX-1; assay type: biochemical; conditions: 0.1 nM to 100 µM in duplicate
T1 construct: purchased Cayman Chemical 700100
T1 sequence (P05979 25-600): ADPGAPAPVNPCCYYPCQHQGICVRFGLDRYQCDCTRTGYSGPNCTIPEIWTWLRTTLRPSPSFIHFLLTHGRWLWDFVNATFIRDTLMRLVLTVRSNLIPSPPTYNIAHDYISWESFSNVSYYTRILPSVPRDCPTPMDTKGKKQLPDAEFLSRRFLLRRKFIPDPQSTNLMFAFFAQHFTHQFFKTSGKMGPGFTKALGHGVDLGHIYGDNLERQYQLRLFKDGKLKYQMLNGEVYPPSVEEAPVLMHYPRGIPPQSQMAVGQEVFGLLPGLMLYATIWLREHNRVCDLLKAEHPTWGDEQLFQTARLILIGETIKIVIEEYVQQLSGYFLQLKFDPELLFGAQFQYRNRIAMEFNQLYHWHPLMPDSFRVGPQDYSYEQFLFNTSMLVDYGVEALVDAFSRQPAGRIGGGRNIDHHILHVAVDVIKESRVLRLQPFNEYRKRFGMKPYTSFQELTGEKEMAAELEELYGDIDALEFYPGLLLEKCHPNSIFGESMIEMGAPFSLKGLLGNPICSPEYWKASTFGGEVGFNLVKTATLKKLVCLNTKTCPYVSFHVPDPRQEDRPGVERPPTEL
Experimental: (§1) COX inhibition (Table 1) was evaluated in vitro using purified ovine COX-1 and recombinant human COX-2 enzyme in a commercially available “COX Fluorescent Inhibitor Screening Assay KIT” (item no. 700100, Cayman Chemical, Ann Arbor, MI, USA). Celecoxib served as a reference and inhibition data concerning 4a, 4e, 5a and 5e were previously reported by us and is herein discussed for comparison.
(§2) COX inhibition activity against ovine COX-1 and human COX-2 was determined using the fluorescence-based COX assay “COX Fluorescent Inhibitor Screening Assay Kit” (catalog number 700100; Cayman Chemical, Ann Arbor, MI, USA) according to the manufacturer’s instructions. Compounds 6a–d were screened at a concentration of 100 µM, all others were assayed in a concentration range of 0.1 nM to 100 μM in duplicate.

[2] = Lipophilicity logD7.4 by HPLC method; assay type: physicochemical; conditions: HPLC retention on ODP-50 4B column (Shodex Asahipak), phosphate buffer pH 7.4
Experimental: The lipophilicity of all synthesized compounds was determined as logD7.4, HPLC value by an HPLC method originally described by Donovan and Pescatore.
The logD7.4HPLC value was determined as previously reported by us utilizing an HPLC method originally described by Donovan and Pescatore.

[3] = target: T2, recombinant human COX-2 (Homo sapiens, UniProt P35354); assay: COX Fluorescent Inhibitor Screening Assay, COX-2; assay type: biochemical; conditions: for SI: COX-1 vs COX-2 selectivity index; for IC50: human COX-2, 0.1 nM to 100 µM in duplicate
T2 construct: purchased Cayman Chemical 700100
T2 sequence (P35354 18-604): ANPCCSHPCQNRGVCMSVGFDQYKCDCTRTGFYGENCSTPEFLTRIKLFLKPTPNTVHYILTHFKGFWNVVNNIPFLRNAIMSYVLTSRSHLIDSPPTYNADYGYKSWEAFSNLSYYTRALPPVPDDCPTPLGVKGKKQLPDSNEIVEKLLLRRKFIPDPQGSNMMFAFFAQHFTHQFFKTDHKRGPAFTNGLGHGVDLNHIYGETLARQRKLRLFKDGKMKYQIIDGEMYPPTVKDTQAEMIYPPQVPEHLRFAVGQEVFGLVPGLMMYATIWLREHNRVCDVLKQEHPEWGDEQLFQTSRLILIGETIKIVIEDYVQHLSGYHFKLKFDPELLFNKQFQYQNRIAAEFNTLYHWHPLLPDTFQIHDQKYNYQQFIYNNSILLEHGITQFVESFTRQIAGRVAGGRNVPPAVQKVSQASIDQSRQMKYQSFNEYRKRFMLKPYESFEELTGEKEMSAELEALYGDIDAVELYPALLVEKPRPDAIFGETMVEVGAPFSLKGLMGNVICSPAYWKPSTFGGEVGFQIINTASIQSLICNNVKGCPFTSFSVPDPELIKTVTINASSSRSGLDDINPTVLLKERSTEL
Experimental: as §1, §2

[4] = target: T2, recombinant human COX-2; design: method as in PMID 26081289; conditions: cited from earlier work; for SI: COX-1 vs COX-2 selectivity index, COX inhibition previously reported ref 49
[5] = target: T1, purified ovine COX-1; design: method as in PMID 26081289; conditions: previously reported ref 49; cited from earlier work
[6] = Conversion in NO-assay buffer followed by UPLC; assay type: physicochemical; conditions: after 70 h, 37 °C, presence of cysteine
Experimental: The time-dependent degradation behavior of compounds 4f, 5a–f, and 6a–d as well as celecoxib was followed by UPLC analysis over a time course of 8 days (Figure 4). For that, compounds were incubated at 37 °C in the presence or absence of cysteine in the assay buffer used for the Griess assay. Samples were withdrawn at distinct time points (1, 5, 23, 47, 70, and 191 h), diluted into a mixture of acetonitrile/water, and analyzed.
The time-dependent conversion of NO-COXIBs 5a–f and 6a–d as well as reference compounds 4f and celecoxib in the presence or absence of cysteine in assay buffer was investigated by following the degradation of intact compound and identification of selected degradation products by UPLC. For that, samples were incubated at 37 °C in the assay buffer in the presence or absence of cysteine and at the indicated time point; 5 µL assay buffer of each sample was withdrawn and diluted with 45 µL MeCN/water (50/50 v/v). The samples were thoroughly vortexed and then subjected to UPLC analysis. All samples of one time point were analyzed within a total analysis time of approximately 2.5 h. Conversion was monitored at 254 nm using the following UPLC system: column Aquity UPLC® HSS C18 column (Waters Corporation, Milford, MA, USA; 100 × 2.1 mm, 1.8 µm, 130 Å), UPLC H-Class (Waters Corporation, Milford, MA, USA): quaternary gradient pump QSM, autosampler FTN, column heater CHA, and diode array detector PDAeλ, γ detector Gabi Star (Raytest Isotopenmeßgeräte GmbH, Straubenhardt, Germany), flow rate 0.4 mL/min, eluent: (A): 0.1% acetic acid in MeCN/MeOH 1/1/(B): 0.1% acetic acid in H2O; gradient: t0min 45/55–t0.5min 45/55–t5.5min 95/5–t7.0min 95/5–t7.2min 45/55–t8.5min 45/55). For the identification of degradation products, samples taken after 24 h were additionally subjected to HPLC-HRMS analysis using HPLC system 6. In brief, the NO-COXIBs were converted to the respective hydroxymethyl-substituted compounds and in the presence of cysteine additionally to the cysteine adduct, which could be identified by the respective Δm/z shifts. A detailed comparison of calculated and found m/z-signals is given in Supplementary Material Table S1, and copies of HPLC-HRMS chromatograms and selected spectra are given in Supplementary Material Figures S56–S66.

[7] = Fluorometric NO release assay (Griess assay); assay type: physicochemical; conditions: 24 h, 37 °C, relative to initial molar amount of compound; for thiol-dependent NO release: 2.5 mM cysteine; for spontaneous NO release: absence of cysteine
Experimental: The nitric oxide releasing properties of the nitroester-derivatives 5a–d, 5f, and 6a–d were evaluated using a fluorometric Griess assay in the presence and absence of cysteine to determine thiol-dependent and spontaneous release of nitric oxide (Figure 3).
Nitric oxide release of compounds within 24 h at 37 °C was measured using the fluorometric nitric oxide microplate assay kit ab65327 (Abcam, Cambridge, UK). For measurement of spontaneous release, 1.8 nmol of compounds were incubated in 75 µL Dulbecco’s PBS containing 0.05% v/v residual DMSO and 2.5 mM DTPA (pH = 7.1) for 24 h at 37 °C. Thiol-dependent release was measured accordingly in presence of 2.5 mM cysteine. Two series of nitrate standards were prepared (0.2−1 nmol) in 75 µL incubation buffer, in presence or absence of cysteine, respectively. According to the manufacturer’s instructions, all nitrate content in samples and standards was enzymatically converted into nitrite through incubation with nitrate reductase for 2 h at room temperature, and the resulting nitrite content (total nitric oxide) was determined through reaction with 2,3-diaminonaphthalene followed by measurement of fluorescence intensity at λex/em = 360/450 nm using a microplate reader. Nitrite content in samples was calculated from linear regression of standards and expressed as relative nitric oxide release (%) normalized to the initial molar amount of compound. NONOate served as positive control.
Figure 3 Spontaneous and thiol-dependent NO^• release from NO-COXIBs; measured using fluorometric Griess assay (n = 2); relative release indicates the percentage of soluble nitrogen species (nitrate + nitrite) detected in the incubation buffer after 24 h compared to the initial molar amount of compounds; NO^• release of NONOate (positive control) exceeded the maximum detection limit; data presented as mean ± range.

IC50 [1] | chromatographic logD [2] | melting point | SI [3] | IC50 [3] | Compound | also measured
 |  | 113 to 115 °C |  |  | Cc1ccc(-c2c(Cl)c(CO[N+](=O)[O-])nn2-c2ccc(S(C)(=O)=O)cc2)cc1 (as salt: nitrate) [5c, {4-Chloro-1-[4-(methylsulfonyl)phenyl]-5-(p-tolyl)-1H-pyrazol-3-yl}methyl nitrate] | 
 |  | 72 to 74 °C |  |  | CCC(=O)NS(=O)(=O)c1ccc(-n2nc(CO[N+](=O)[O-])cc2-c2ccc(C)cc2)cc1 (as salt: nitrate) [6c, {1-[4-(N-Propionylsulfamoyl)phenyl]-5-(p-tolyl)-1H-pyrazol-3-yl}methyl nitrate] | 
 |  | 173 to 174 °C |  |  | COc1ccc(-c2c(Cl)c(CO[N+](=O)[O-])nn2-c2ccc(S(N)(=O)=O)cc2)cc1 (as salt: nitrate) [5b, [4-Chloro-5-(4-methoxyphenyl)-1-(4-sulfamoylphenyl)-1H-pyrazol-3-yl]methyl nitrate] | 
 | 3.4 |  |  |  | Cc1ccc(-c2cc(CO[N+](=O)[O-])nn2-c2ccc(S(N)(=O)=O)cc2)cc1 [5e, [1-(4-Sulfamoylphenyl)-5-(p-tolyl)-1H-pyrazol-3-yl]methyl nitrate] | SI [4]: >112; IC50 [5]: > 100000 nM
 |  | 141 to 143 °C |  |  | COc1ccc(-c2c(Cl)c(CO[N+](=O)[O-])nn2-c2ccc(S(C)(=O)=O)cc2)cc1 (as salt: nitrate) [5d, {4-Chloro-5-(4-methoxyphenyl)-1-[4-(methylsulfonyl)phenyl]-1H-pyrazol-3-yl}methyl nitrate] | 
2570 nM | 3.67 |  | 5.9 | 434 nM | COc1ccc(-c2c(Cl)c(CO[N+](=O)[O-])nn2-c2ccc(S(N)(=O)=O)cc2)cc1 [5b, [4-Chloro-5-(4-methoxyphenyl)-1-(4-sulfamoylphenyl)-1H-pyrazol-3-yl]methyl nitrate] | IC50 (COX-1) [1]: considerable COX-1 inhibition potency; thiol-dependent NO release [7]: 20%; spontaneous NO release [7]: no detectable

Second part, the compound before the results:

Compound | IC50 [1] | chromatographic logD [2] | melting point | SI [3] | IC50 [3] | also measured
COc1ccc(-c2c(Cl)c(CCl)nn2-c2ccc(S(N)(=O)=O)cc2)cc1 [4b, 4-[4-Chloro-3-(chloromethyl)-5-(4-methoxyphenyl)-1H-pyrazol-1-yl]benzenesulfonamide] | 297 nM | 3.53 | 238 to 240 °C | 2.3 | 127 nM | 
Cc1ccc(-c2c(Cl)c(CCl)nn2-c2ccc(S(C)(=O)=O)cc2)cc1 [4c, 4-Chloro-3-(chloromethyl)-1-[4-(methylsulfonyl)phenyl]-5-(p-tolyl)-1H-pyrazole] | > 100000 nM | 3.9 |  | >138 | 720 nM | 
Cc1ccc(-c2cc(CCl)nn2-c2ccc(S(N)(=O)=O)cc2)cc1 [4e, 4-[3-(Chloromethyl)-5-(p-tolyl)-1H-pyrazol-1-yl]benzenesulfonamide] |  | 3.14 |  |  |  | SI [4]: >78; IC50 ([4]; human COX-2, previously reported ref 49): 1270 nM; IC50 [5]: > 100000 nM
COc1ccc(-c2c(Cl)c(CCl)nn2-c2ccc(S(C)(=O)=O)cc2)cc1 [4d, 4-Chloro-3-(chloromethyl)-5-(4-methoxyphenyl)-1-[4-(methylsulfonyl)phenyl]-1H-pyrazole] | > 100000 nM | 3.84 | 234 to 236 °C | >208 | 480 nM | 
Cc1ccc(-c2c(Cl)c(CCl)nn2-c2ccc(S(N)(=O)=O)cc2)cc1 [4a, 4-[4-Chloro-3-(chloromethyl)-5-(4-toly)-1H-pyrazol-1-yl]benzenesulfonamide] |  | 3.61 |  |  |  | SI [4]: >454; IC50 [5]: > 100000 nM
COc1ccc(-c2cc(CCl)nn2-c2ccc(S(N)(=O)=O)cc2)cc1 [4f, 4-[3-(Chloromethyl)-5-(4-methoxyphenyl)-1H-pyrazol-1-yl]benzenesulfonamide] | > 100000 nM | 3.06 | 169 to 172 °C | >270 | 370 nM | intact compound [6]: quantitatively consumed; thiol-dependent NO release [7]: not detectable; spontaneous NO release [7]: not detectable
